Experimental data as given in patent publication US10508120B2, “TYK2 inhibitors and uses thereof” (Nimbus Lakshmi, Inc., priority 2017, dated 2019).
Where two headings read alike, the source gives them in different places.

Legend:
Tyk2 kinase domain (DH1) = Tyk2 kinase domain (DH1) (Homo sapiens (Human), UniProt P29597); experiment: Tyk2 Radioactive Kinase Assay; type: biochemical; conditions: for inhibition at 10 µM: read-out: Tyk2 JH1% Inhibition @ 10 μM
Method in brief: (§1)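 Compounds were tested at a single concentration of 10 μM in a radiometric kinase format against each isolated kinase domain. Activity is reported as percent inhibition at that concentration.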

JAK2 kinase domain (JH1) = JAK2 kinase domain (JH1) (Homo sapiens (Human), UniProt O60674); experiment: JAK2 Radioactive Kinase Assay; type: biochemical; conditions: for inhibition at 10 µM: read-out: JAK2 JH1% Inhibition @ 10 μM
Method in brief: as §1

[1] = biological target: JAK2/JAK2 homdimeric complex (Homo sapiens (Human), UniProt O60674); experiment: GM-CSF Induced pSTAT5 in Human PBMC; type: cell-based; conditions: GM-CSF 5 ng/mL for 20 minutes, pSTAT5 by MSD, read-out: PBMC_GMCSF_pSTAT5 IC50
[2] = biological target: human TYK2 (JH2domain-pseudokinase) (Homo sapiens (Human), UniProt P29597); experiment: TYK2 JH2 Domain Binding Assay (KINOMEscan)
Method in brief: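 Pseudokinase domain binding was measured by qPCR of tagged, bead-retained kinase after 1 h room-temperature competition, with 0.9% DMSO and compound up to 30,000 nM in 3-fold steps. Hill-equation Kd, duplicate.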

JAK2/JAK2 homdimeric complex, sequence (O60674 whole entry, the tested form may be a part): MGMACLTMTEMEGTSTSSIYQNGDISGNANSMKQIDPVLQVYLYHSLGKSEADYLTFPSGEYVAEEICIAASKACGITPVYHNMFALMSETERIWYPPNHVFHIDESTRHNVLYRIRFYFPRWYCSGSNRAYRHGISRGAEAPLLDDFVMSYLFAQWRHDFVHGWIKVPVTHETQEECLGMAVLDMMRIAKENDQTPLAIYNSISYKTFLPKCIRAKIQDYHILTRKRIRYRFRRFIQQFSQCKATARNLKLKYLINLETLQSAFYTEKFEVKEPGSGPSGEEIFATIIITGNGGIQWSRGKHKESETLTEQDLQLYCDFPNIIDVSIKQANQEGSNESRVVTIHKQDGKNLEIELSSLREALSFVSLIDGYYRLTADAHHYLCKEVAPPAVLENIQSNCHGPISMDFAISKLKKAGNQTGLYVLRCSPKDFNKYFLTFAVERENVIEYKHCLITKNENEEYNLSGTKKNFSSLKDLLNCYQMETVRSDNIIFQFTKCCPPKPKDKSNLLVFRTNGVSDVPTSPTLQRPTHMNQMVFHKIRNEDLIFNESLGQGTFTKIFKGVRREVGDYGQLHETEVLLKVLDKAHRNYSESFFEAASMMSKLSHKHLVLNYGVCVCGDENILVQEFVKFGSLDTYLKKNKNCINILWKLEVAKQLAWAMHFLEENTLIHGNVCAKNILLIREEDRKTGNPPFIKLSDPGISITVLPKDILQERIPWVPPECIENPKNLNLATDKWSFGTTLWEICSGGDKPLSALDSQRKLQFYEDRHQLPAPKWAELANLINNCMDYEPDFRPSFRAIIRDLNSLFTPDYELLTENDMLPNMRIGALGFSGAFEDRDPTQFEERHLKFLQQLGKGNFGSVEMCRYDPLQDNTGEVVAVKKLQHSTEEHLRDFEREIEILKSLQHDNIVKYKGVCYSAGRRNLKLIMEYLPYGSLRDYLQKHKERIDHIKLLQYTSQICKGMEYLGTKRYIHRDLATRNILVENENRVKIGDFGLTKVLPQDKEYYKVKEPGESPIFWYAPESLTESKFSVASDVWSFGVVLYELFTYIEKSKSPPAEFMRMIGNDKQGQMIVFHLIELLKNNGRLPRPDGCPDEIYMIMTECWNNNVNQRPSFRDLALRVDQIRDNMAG
JAK2/JAK2 homdimeric complex, sequence (P32927 17-897 partner): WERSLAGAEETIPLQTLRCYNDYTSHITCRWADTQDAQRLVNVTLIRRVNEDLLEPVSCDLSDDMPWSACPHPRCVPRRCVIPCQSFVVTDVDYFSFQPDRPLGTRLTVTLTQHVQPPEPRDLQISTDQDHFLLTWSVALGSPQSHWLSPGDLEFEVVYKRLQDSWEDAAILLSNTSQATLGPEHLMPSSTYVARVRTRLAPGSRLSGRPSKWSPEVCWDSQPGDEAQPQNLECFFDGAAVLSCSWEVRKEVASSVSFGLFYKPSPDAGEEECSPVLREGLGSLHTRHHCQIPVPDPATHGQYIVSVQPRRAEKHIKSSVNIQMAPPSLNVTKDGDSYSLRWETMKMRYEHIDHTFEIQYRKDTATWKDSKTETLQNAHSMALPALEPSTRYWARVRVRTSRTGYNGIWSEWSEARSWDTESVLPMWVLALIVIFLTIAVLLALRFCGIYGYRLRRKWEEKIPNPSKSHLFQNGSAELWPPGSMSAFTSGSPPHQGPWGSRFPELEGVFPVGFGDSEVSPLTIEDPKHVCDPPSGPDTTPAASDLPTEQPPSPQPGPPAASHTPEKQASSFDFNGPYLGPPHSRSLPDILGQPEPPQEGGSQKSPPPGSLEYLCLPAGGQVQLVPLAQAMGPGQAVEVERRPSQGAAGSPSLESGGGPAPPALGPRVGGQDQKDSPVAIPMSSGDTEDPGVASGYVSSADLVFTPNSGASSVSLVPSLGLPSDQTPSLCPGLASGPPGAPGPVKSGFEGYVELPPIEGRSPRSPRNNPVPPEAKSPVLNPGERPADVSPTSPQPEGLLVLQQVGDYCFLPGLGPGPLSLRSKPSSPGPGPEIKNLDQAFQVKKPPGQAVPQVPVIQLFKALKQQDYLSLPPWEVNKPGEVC
JAK2 kinase domain (JH1), sequence (O60674 849-1124): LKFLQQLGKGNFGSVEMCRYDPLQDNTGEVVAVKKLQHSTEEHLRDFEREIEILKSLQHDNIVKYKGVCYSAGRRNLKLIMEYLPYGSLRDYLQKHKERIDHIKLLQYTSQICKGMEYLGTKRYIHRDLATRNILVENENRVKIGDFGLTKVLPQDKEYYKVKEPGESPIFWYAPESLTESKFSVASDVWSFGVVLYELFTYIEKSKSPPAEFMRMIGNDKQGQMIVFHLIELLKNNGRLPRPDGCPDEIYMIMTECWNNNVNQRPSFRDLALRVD
Tyk2 kinase domain (DH1), sequence (P29597 897-1176): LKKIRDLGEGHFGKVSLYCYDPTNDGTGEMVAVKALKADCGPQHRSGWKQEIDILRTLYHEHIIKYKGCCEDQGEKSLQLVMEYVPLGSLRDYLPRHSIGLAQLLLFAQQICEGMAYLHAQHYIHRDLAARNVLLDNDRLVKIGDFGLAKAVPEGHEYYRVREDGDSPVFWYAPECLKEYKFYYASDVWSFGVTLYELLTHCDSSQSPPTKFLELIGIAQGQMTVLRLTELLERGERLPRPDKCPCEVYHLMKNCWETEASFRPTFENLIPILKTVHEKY
human TYK2 (JH2domain-pseudokinase), sequence (P29597 556-888): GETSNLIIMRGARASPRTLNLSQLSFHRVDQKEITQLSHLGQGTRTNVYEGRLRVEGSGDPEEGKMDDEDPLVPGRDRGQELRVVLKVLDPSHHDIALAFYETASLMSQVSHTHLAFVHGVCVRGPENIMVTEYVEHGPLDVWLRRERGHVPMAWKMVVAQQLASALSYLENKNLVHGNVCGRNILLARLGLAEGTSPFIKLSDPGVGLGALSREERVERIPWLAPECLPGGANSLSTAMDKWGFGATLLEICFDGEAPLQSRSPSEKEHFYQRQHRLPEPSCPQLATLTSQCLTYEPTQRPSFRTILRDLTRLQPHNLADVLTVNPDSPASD

| SMILES | IC50 [1] [µM] | Kd [2] [µM] | also measured |
| --- | --- | --- | --- |
| CNc1cc(Nc2cccn(-c3ccccn3)c2=O)nc2c(C(=O)N[C@H]3CC[C@@H]3O)cnn12 [I-971] | > 50 | – | inhibition at 10 µM (Tyk2 kinase domain (DH1); 10 μM compound, 10 μM ATP): < 50%; inhibition at 10 µM (JAK2 kinase domain (JH1); 10 μM compound, 10 μM ATP): < 50% |
| CNc1cc(Nc2cccnc2OC)nc2c(C(=O)NC3CC3)cnn12 [I-8] | > 50 | – | – |
| CNc1cc(Nc2cccn(-c3cncc(F)c3)c2=O)nc2c(C(=O)N[C@H]3CC[C@@H]3OC)cnn12 [I-984] | > 50 | – | JAK2 JH1% Inhibition @ 10 μM (JAK2 kinase domain (JH1); 10 μM compound, 10 μM ATP): A (percent inhibition at 10 μM lower than 50) |
| CNc1cc(Nc2cccn(-c3cccnc3)c2=O)nc2c(C(=O)N[C@H]3CC[C@@H]3OC)cnn12 [I-864] | > 50 | – | – |
| CNc1cc(Nc2cccn([C@@H]3CCCOC3)c2=O)nc2c(C(=O)NC3CCC3OC)cnn12 (mixture of isomers) [I-814, N-(-2-methoxycyclobutyl)-7-(methylamino)-5-((2-oxo-1-((R)-tetrahydro-2H-pyran-3-yl)-1,2-dihydropyridin-3-yl)amino)pyrazolo[1,5-a]pyrimidine-3-carboxamide] | > 50 | – | inhibition at 10 µM (JAK2 kinase domain (JH1); 10 μM compound, 10 μM ATP): < 50% |
| CNc1cc(Nc2cccn([C@H]3CCCOC3)c2=O)nc2c(C(=O)N[C@@H]3CC[C@H]3OC)cnn12 [I-815] | > 12.5 | – | inhibition at 10 µM (JAK2 kinase domain (JH1); 10 μM compound, 10 μM ATP): < 50% |
| CCONC(=O)c1cnn2c(NC)cc(Nc3cccn(-c4ncccc4F)c3=O)nc12 [I-798, N-ethoxy-5-((3′-fluoro-2-oxo-2H-[1,2′-bipyridin]-3-yl)amino)-7-(methylamino) pyrazolo[1,5-a]pyrimidine-3-carboxamide] | > 50 | – | inhibition at 10 µM (JAK2 kinase domain (JH1)): < 50% |
| CNc1cc(Nc2cccn([C@H]3CC[C@H](OC)CC3)c2=O)nc2c(C(=O)N[C@H]3CC[C@@H]3OC)cnn12 [I-1062] | > 50 | – | – |
| CNc1cc(Nc2cccn([C@H]3CCCOC3)c2=O)nc2c(C(=O)N[C@H]3CC[C@@H]3OC)cnn12 [I-877] | > 50 | – | inhibition at 10 µM (JAK2 kinase domain (JH1); 10 μM compound, 10 μM ATP): < 50% |
| CNc1cc(Nc2cccn(-c3nc(C)co3)c2=O)nc2c(C(=O)N[C@H]3CC[C@@H]3OC)cnn12 [I-890] | > 12.5 | – | – |
| CNc1cc(Nc2cccn(-c3cnc(C)o3)c2=O)nc2c(C(=O)N[C@@H]3CC[C@H]3OC)cnn12 [I-895] | > 50 | – | – |
| CNc1cc(Nc2cccn([C@@H]3CCC[C@@H](OC)C3)c2=O)nc2c(C(=O)NC3CC3)cnn12 [I-957] | > 50 | – | Tyk2 JH1% Inhibition @ 10 μM (Tyk2 kinase domain (DH1); 10 μM compound, 10 μM ATP): A (percent inhibition at 10 μM lower than 50); JAK2 JH1% Inhibition @ 10 μM (JAK2 kinase domain (JH1); 10 μM compound, 10 μM ATP): A (percent inhibition at 10 μM lower than 50) |
| [2H]C([2H])([2H])Oc1ncccc1Nc1cc(NC)n2ncc(C(=O)NC3CC3)c2n1 [I-175, N-cyclopropyl-5-((2-(methoxy-d3)pyridin-3-yl)amino)-7-(methylamino) pyrazolo[1,5-a]pyrimidine-3-carboxamide] | > 12.5 | – | – |
| CNc1cc(Nc2cccn(C(C)C)c2=O)nc2c(C(=O)N[C@H]3CC[C@@H]3OC)cnn12 [I-980] | > 50 | – | – |
| CNc1cc(Nc2cccn(-c3ncccc3F)c2=O)nc2c(C(=O)NC3CC3)cnn12 [I-143] | > 50 | – | – |
| CNc1cc(Nc2cccn(-c3ncco3)c2=O)nc2c(C(=O)N[C@@H]3CC[C@H]3OC)cnn12 [I-1398] | > 50 | – | – |
| CNc1cc(Nc2cccn(-c3ccc(F)cn3)c2=O)nc2c(C(=O)N[C@@H]3CC[C@H]3OC)cnn12 [I-817] | > 2.5 | – | – |
| CNc1cc(Nc2cccn([C@H]3CC[C@H](OC)CC3)c2=O)nc2c(C(=O)N[C@@H]3CC[C@H]3OC)cnn12 [I-1378] | > 50 | – | – |
| CNc1cc(Nc2cccn(-c3ccc(F)cn3)c2=O)nc2c(C(=O)N[C@H]3CC[C@@H]3OC)cnn12 [I-926] | > 2.5 | – | – |
| CNc1cc(Nc2cccnc2OC)nc2c(C(=O)NOC(C)(C)C)cnn12 [I-612, N-(tert-butoxy)-5-((2-methoxypyridin-3-yl)amino)-7-(methylamino) pyrazolo[1,5-a]pyrimidine-3-carboxamide] | > 50 | – | inhibition at 10 µM (JAK2 kinase domain (JH1)): < 50% |

| SMILES | IC50 [1] [µM] | Kd [2] [µM] | also measured |
| --- | --- | --- | --- |
| CNc1cc(Nc2cccn([C@@H]3CCCOC3)c2=O)nc2c(C(=O)N[C@@H]3CC[C@H]3OC)cnn12 [I-902, N-((1R,2R)-2-methoxycyclobutyl)-7-(methylamino)-5-((2-oxo-1-((R)-tetrahydro-2H-pyran-3-yl)-1,2-dihydropyridin-3-yl)amino)pyrazolo[1,5-a]pyrimidine-3-carboxamide] | > 50 | – | JAK2 JH1% Inhibition @ 10 μM (JAK2 kinase domain (JH1); 10 μM compound, 10 μM ATP): A (percent inhibition at 10 μM lower than 50) |
| CNc1cc(Nc2cccn(C(C)C)c2=O)nc2c(C(=O)N[C@@H]3CC[C@H]3OC)cnn12 [I-917] | > 50 | – | – |
| CNc1cc(Nc2cccn(-c3nc(C)co3)c2=O)nc2c(C(=O)N[C@H]3CC[C@@H]3OC)cnn12 [I-975] | > 50 | – | – |
| CNc1cc(Nc2cccn(C3CCOCC3)c2=O)nc2c(C(=O)N[C@H]3CC[C@@H]3OC)cnn12 [I-1014] | > 50 | – | – |
| CNc1cc(Nc2cc(C)cc(C)c2)nc2c(C(=O)NC3CC3)cnn12 [I-1, N-cyclopropyl-5-((3,5-dimethylphenyl)amino)-7-(methylamino)pyrazolo[1,5-a]pyrimidine-3-carboxamide] | > 50 | – | – |
| CNc1cc(Nc2cccn([C@H]3CC[C@@H]3OC)c2=O)nc2c(C(=O)NC3CC3)cnn12 [I-1019] | – | 0.0002 to 0.001 | inhibition at 10 µM (Tyk2 kinase domain (DH1); 10 μM compound, 10 μM ATP): < 50%; inhibition at 10 µM (JAK2 kinase domain (JH1); 10 μM compound, 10 μM ATP): < 50% |
| CNc1cc(Nc2cccc([C@H]3CCCOC3)n2)nc2c(C(=O)N[C@@H]3COC[C@@H]3O)cnn12 [I-634] | – | < 0.0002 | inhibition at 10 µM (Tyk2 kinase domain (DH1); compound at 10 μM, ATP 10 μM): < 50%; inhibition at 10 µM (JAK2 kinase domain (JH1); compound at 10 μM, ATP 10 μM): < 50% |
| CNc1cc(Nc2cccn(-c3nc(C)co3)c2=O)nc2c(C(=O)N[C@@H]3CC[C@@H]3O)cnn12 [I-654] | – | < 0.0002 | inhibition at 10 µM (Tyk2 kinase domain (DH1); compound at 10 μM, ATP 10 μM): < 50%; inhibition at 10 µM (JAK2 kinase domain (JH1); compound at 10 μM, ATP 10 μM): < 50% |
| CNc1cc(Nc2cccn(-c3ccc(F)cc3)c2=O)nc2c(C(=O)NC3CC3)cnn12 [I-107, N-cyclopropyl-5-((1-(4-fluorophenyl)-2-oo-1,2-dihydropyridin-3-yl)amino)-7-(methylamino)pyrazolo[1,5-a]pyrimidine-3-carboxamide] | > 2.5 | – | – |
| CNc1cc(Nc2cccn(C3CCCCC3)c2=O)nc2c(C(N)=O)cnn12 [I-12] | – | 0.001 to 0.01 | inhibition at 10 µM (Tyk2 kinase domain (DH1); compound at 10 μM, ATP 10 μM): < 50%; inhibition at 10 µM (JAK2 kinase domain (JH1); compound at 10 μM, ATP 10 μM): < 50% |
| CNc1cc(Nc2cccn([C@@H]3CCCOC3)c2=O)nc2c(C(=O)N[C@@H]3CCC[C@@H](O)C3)cnn12 [I-735] | – | < 0.0002 | inhibition at 10 µM (Tyk2 kinase domain (DH1); compound at 10 μM, ATP 10 μM): < 50%; inhibition at 10 µM (JAK2 kinase domain (JH1); compound at 10 μM, ATP 10 μM): < 50% |
| NC(=O)c1cnn2c(N)cc(Nc3cccc(N4CCOC4=O)n3)nc12 [I-66] | – | 0.0002 to 0.001 | inhibition at 10 µM (Tyk2 kinase domain (DH1); compound at 10 μM, ATP 10 μM): < 50%; inhibition at 10 µM (JAK2 kinase domain (JH1); compound at 10 μM, ATP 10 μM): 50 to 70% |
| CNc1cc(Nc2cccnc2OC)nc2c(C(=O)NCC(C)CO)cnn12 (stereo not shown) [I-434, N-(3-hydroxy-2-methylpropyl)-5-((2-methoxypyridin-3-yl)amino)-7-(methylamino)pyrazolo[1,5-a]pyrimidine-3-carboxamide] | – | < 0.0002 | inhibition at 10 µM (Tyk2 kinase domain (DH1); compound at 10 μM, ATP 10 μM): < 50%; inhibition at 10 µM (JAK2 kinase domain (JH1); compound at 10 μM, ATP 10 μM): < 50% |
| CNc1cc(-c2nn([C@H]3CCOC3)c3ncccc23)nc2c(C(=O)N[C@@H]3C[C@@H]3F)cnn12 [I-518] | – | 0.0002 to 0.001 | inhibition at 10 µM (Tyk2 kinase domain (DH1); compound at 10 μM, ATP 10 μM): < 50%; inhibition at 10 µM (JAK2 kinase domain (JH1); compound at 10 μM, ATP 10 μM): < 50% |
| CNc1cc(Nc2cccn(-c3ccccn3)c2=O)nc2c(C(=O)NCC3(CO)CC3)cnn12 [I-684] | – | 0.0002 to 0.001 | inhibition at 10 µM (Tyk2 kinase domain (DH1); compound at 10 μM, ATP 10 μM): < 50%; inhibition at 10 µM (JAK2 kinase domain (JH1); compound at 10 μM, ATP 10 μM): < 50% |
| CNc1cc(Nc2cccn([C@@H]3CCC[C@@H]3O)c2=O)nc2c(C(=O)N[C@@H]3C[C@@H]3F)cnn12 [I-966] | – | 0.0002 to 0.001 | inhibition at 10 µM (Tyk2 kinase domain (DH1); 10 μM compound, 10 μM ATP): < 50%; inhibition at 10 µM (JAK2 kinase domain (JH1); 10 μM compound, 10 μM ATP): < 50% |
| CNc1cc(-c2cn(C(C)C)c3ncccc23)nc2c(C(=O)N[C@@H]3C[C@H]3O)cnn12 (stereo in doubt) [I-653, N-((1R,2R)-2-hydroxycyclopropyl)-5-(1-isopropyl-1H-pyrrolo[2,3-b]pyridin-3-yl)-7-(methylamino)pyrazolo[1,5-a]pyrimidine-3-carboxamide] | – | < 0.0002 | inhibition at 10 µM (Tyk2 kinase domain (DH1); compound at 10 μM, ATP 10 μM): < 50%; inhibition at 10 µM (JAK2 kinase domain (JH1); compound at 10 μM, ATP 10 μM): < 50% |
| CNc1cc(Nc2cccnc2OC2CC2)nc2c(C(=O)N[C@@H]3CC[C@@H](O)C3)cnn12 [I-490, 5-((2-cyclopropoxypyridin-3-yl)amino)-N-((1R,3R)-3-hydroxycyclopentyl)-7-(methylamino)pyrazolo[1,5-a]pyrimidine-3-carboxamide] | – | < 0.0002 | inhibition at 10 µM (Tyk2 kinase domain (DH1); compound at 10 μM, ATP 10 μM): < 50%; inhibition at 10 µM (JAK2 kinase domain (JH1); compound at 10 μM, ATP 10 μM): < 50% |
| CC(C)Oc1ncc(Cl)cc1Nc1cc(N)n2ncc(C(N)=O)c2n1 [I-79] | – | 0.0002 to 0.001 | inhibition at 10 µM (Tyk2 kinase domain (DH1); compound at 10 μM, ATP 10 μM): < 50%; inhibition at 10 µM (JAK2 kinase domain (JH1); compound at 10 μM, ATP 10 μM): < 50% |
